Source: ChEMBL document CHEMBL2385025, “Detour of prenostodione synthesis towards pyrazolones for antibacterial activity” (2013)

Tests used:
[1] = test system: Pseudomonas aeruginosa; assay: Inhibition of biofilm formation of Pseudomonas aeruginosa PAO1 at 50 uM by crystal violet staining-based spectrophotometric analysis relative to control; assay type: functional
[2] = test system: Pseudomonas aeruginosa; assay: Growth inhibition of Pseudomonas aeruginosa PAO1 at 50 uM relative to control; assay type: functional; conditions: read-out: GI
[3] = test system: Staphylococcus aureus; assay: Inhibition of biofilm formation of methicillin-sensitive Staphylococcus aureus at 50 uM by crystal violet staining-based spectrophotometric analysis relative to control; assay type: functional
[4] = test system: Staphylococcus aureus; assay: Growth inhibition of methicillin-sensitive Staphylococcus aureus at 50 uM relative to control; assay type: functional; conditions: read-out: GI
[5] = test system: Staphylococcus aureus; assay: Inhibition of biofilm formation of Staphylococcus aureus ATCC 35556 at 50 uM by crystal violet staining-based spectrophotometric analysis relative to control; assay type: functional
[6] = test system: Staphylococcus aureus; assay: Growth inhibition of Staphylococcus aureus ATCC 35556 at 50 uM relative to control; assay type: functional; conditions: read-out: GI
[7] = test system: Staphylococcus epidermidis; assay: Inhibition of biofilm formation of Staphylococcus epidermidis 1457 at 50 uM by crystal violet staining-based spectrophotometric analysis relative to control; assay type: functional
[8] = test system: Staphylococcus epidermidis; assay: Growth inhibition of Staphylococcus epidermidis 1457 at 50 uM relative to control; assay type: functional; conditions: read-out: GI
[9] = test system: Staphylococcus epidermidis; assay: Growth inhibition of Staphylococcus epidermidis GTC 18972 at 50 uM relative to control; assay type: functional; conditions: read-out: GI
[10] = test system: Staphylococcus epidermidis; assay: Inhibition of biofilm formation of Staphylococcus epidermidis GTC 18972 at 50 uM by crystal violet staining-based spectrophotometric analysis relative to control; assay type: functional
[11] = test system: Staphylococcus aureus; assay: Growth inhibition of Staphylococcus aureus MRSA 1094 at 50 uM relative to control; conditions: read-out: GI
[12] = test system: Staphylococcus aureus; assay: Inhibition of biofilm formation of Staphylococcus aureus MRSA 1094 at 50 uM by crystal violet staining-based spectrophotometric analysis relative to control

Compound	inhibition at 50 µM [1] [%]	inhibition of growth at 50 µM [2] [%]	inhibition at 50 µM [3] [%]	inhibition of growth at 50 µM [4] [%]	inhibition at 50 µM [5] [%]	inhibition of growth at 50 µM [6] [%]	inhibition at 50 µM [7] [%]	inhibition of growth at 50 µM [8] [%]	inhibition of growth at 50 µM [9] [%]	inhibition at 50 µM [10] [%]	inhibition of growth at 50 µM [11] [%]	inhibition at 50 µM [12] [%]
COC(=O)CC1=NN(c2ccccc2)C(=O)/C1=C\c1ccc(Cl)cc1	9.68	-5.15	86.7	21.9	88.1	10.3	6.08	23.1	32.4	20.4	38	21.5
COC(=O)CC1=NN(c2ccccc2)C(=O)/C1=C\c1ccccc1Br	-22.9	9.21	46.5	8.69	65.8	-6.96	50.8	32.4	55	82.6	53.5	87.9
COC(=O)CC1=NN(c2ccccc2)C(=O)/C1=C\c1ccc(OC)cc1OC	-31.1	-3.78	-61.9	-6.08	1.53	-5.55	-0.983	-1.75	20.5	-5.55	-0.169	37.6
COC(=O)CC1=NN(c2ccccc2)C(=O)/C1=C\c1ccsc1	-4.41	10.8	-5.79	-3.06	0.355	-17.5	2.03	14.3	33.8	10.8	15	-23.8
COC(=O)CC1=NN(c2ccccc2)C(=O)/C1=C\c1ccc(N(C)C)cc1	-79.8	2.45	-27.3	-11.4	9.7	-18.4	1.24	9.19	27.7	3.75	11.5	35.9
COC(=O)CC1=NN(c2ccccc2)C(=O)/C1=C\c1cc(OC)c(OC)c(OC)c1	11	-0.864	19.8	1.49	31.2	-3.34	10.6	15.8	33.8	12.8	20.9	2.88
CCOc1ccc(/C=C2\C(=O)N(c3ccccc3)N=C2CC(=O)OC)cc1OC	-5.61	-1.25	57.8	-0.402	34	-2.46	-1.83	4.08	22	15.6	2.81	15.2
COC(=O)CC1=NN(c2ccccc2)C(=O)/C1=C\c1ccco1	13.9	-14.8	-15.6	-5.33	6.49	-15.4	9.86	13.9	25.9	12.1	20.4	-167
COC(=O)CC1=NN(c2ccccc2)C(=O)/C1=C\c1ccc(O)cc1	-5.96	14.1	9.96	-5.33	-0.723	-7.76	3.69	15	30.2	2.6	7.95	-7.01
COC(=O)CC1=NN(c2ccccc2)C(=O)/C1=C\c1c[nH]c2ccccc12	-38.5	-10.8	8.02	-19.4	62	-19.7	47.7	-7.59	-2.37	54.5	0.914	-126
